US4157347A, “N-cyano isothioureas” (Bristol-Myers Company, priority 1978, dated 1979)

Tests used:
gastric secretion = details: in words, cited from earlier work
histamine H2-receptors [1] = target: T1, histamine H2-receptors (Cavia porcellus, UniProt P47747); details: literature, in words; cited from earlier work
T1 construct: The spontaneously beating right atrium was dissected free from other tissues; from tissue; host or cells: isolated spontaneously beating right atrium of male Hartley guinea pigs
T1 sequence (P47747 whole entry): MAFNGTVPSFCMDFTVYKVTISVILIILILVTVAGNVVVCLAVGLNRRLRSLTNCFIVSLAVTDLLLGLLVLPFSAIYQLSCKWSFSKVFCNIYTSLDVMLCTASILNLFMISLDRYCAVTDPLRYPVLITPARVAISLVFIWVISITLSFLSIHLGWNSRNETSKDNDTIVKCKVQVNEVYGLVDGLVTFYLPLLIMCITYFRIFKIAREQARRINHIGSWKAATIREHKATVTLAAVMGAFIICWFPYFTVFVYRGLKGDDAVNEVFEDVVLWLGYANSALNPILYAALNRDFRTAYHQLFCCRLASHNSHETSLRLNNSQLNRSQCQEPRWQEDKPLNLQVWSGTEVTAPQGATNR

[2] = in words; cited from earlier work
histamine H2-receptors [3] = target: T1, histamine H2-receptors; experiment: Histamine H2-receptor antagonism, isolated guinea pig right atria assay; assay type: cell-based; details: cumulative histamine 1×10^-7 to 3×10^-5 M
Procedure: Subsequent investigations by Hughes and Coret, Proc. Soc. […] Black et al., Agents and Actions, 3, 133 (1973) and Brimblecombe et al., Fed. […] The present comparative studies were carried out using a modification of the procedure reported by Reinhardt et al., Agents and Actions, 4, 217 (1974).
Male Hartley strain guinea pigs (350-450 gm.) were sacrificed by a blow on the head. The heart was excised and placed in a Petri dish of oxygenated (95% O2, 5% CO2) modified Krebs solution (g./liter: NaCl 6.6, KCl 0.35, MgSO4.7 H2 O 0.295, KH2 PO4 0.162, CaCl2 0.238, NaHCO3 2.1 and dextrose 2.09). The spontaneously beating right atrium was dissected free from other tissues and a silk thread (4-0) attached to each end. The atrium was suspended in a 20 ml. muscle chamber containing oxygenated modified Krebs solution maintained at 32° C. Atrial contractions were recorded isometrically by means of a Grass FT 0.03 force displacement transducer and recordings of contractile force and rate were made with a Beckman RP Dynograph.
A resting tension of 1 g. was applied to the atrium and it was allowed to equilibrate for 1 hour.
Concentration-response curve displacement factors were calculated as follows: [formula] The factor obtained for BL-5641 was then expressed as a ratio of the factor obtained for cimetidine. [formula]

H2 receptors = details: in words; cited from earlier work
[4] = clinical, in words; cited from earlier work

SMILES	inhibition of gastric secretion (gastric secretion; animals and man)	clinical effectiveness as H2 receptor antagonist (gastric secretion)	effect on histamine H2-receptors / contractile rate of guinea pig right atria (histamine H2-receptors [1])	oral absorption [2]	concentration of maximal response (histamine-induced increase in atrial rate) (histamine H2-receptors [3]) [µM]	H2 antagonist potency/effectiveness (H2 receptors)	oral activity in man [2]	toxicity (agranulocytosis) [4]
CNC(=S)NCCCCc1cnc[nH]1 [Burimamide]	inhibits gastric secretion in animals and man	first clinically effective H2 receptor antagonist	a competitive antagonist of these receptors	oral absorption is poor	–	–	–	–
NCCc1c[nH]cn1 [Histamine]	–	–	concentration-related increases in the contractile rate	–	30	–	–	–
CNC(=S)NCCSCc1[nH]cnc1C [Metiamide]	–	–	–	–	–	more potent than burimamide	orally active in man	toxicity (agranulocytosis)
